In article PMC8464955, “Prediction of Drug–Drug Interaction Potential of Tegoprazan Using Physiologically Based Pharmacokinetic Modeling and Simulation” (Pharmaceutics, 2021):

Experiments:
CYP3A4 = CYP3A4 intrinsic clearance by parameter estimation against clinical data; set-up: species or system human; details: estimated from clinical data, single dose 50 mg, instead of in vitro data
Method: (§1) The elimination of the PBPK model consisted of enzyme kinetic and renal clearance (Table 1). Intrinsic clearances (CLint) of tegoprazan by various CYPs were determined by an in vitro study that measured the fraction of CLint inhibited by adding the inhibitors of CYP1A2, CYP2C9, CYP2C19, CYP2D6, and CYP3A to human liver microsomes (in-house data). Based on the in vitro data, an in vitro to in vivo extrapolation (IVIVE) approach was used to estimate the in vivo CLint by each CYP enzyme. Renal clearance as an additional clearance was used from the result of a single-oral-dose study of tegoprazan 100 mg.
If the predicted PK profiles and parameters were not close enough to the observed values, the PBPK model was refined by the parameter estimation approach, in which a parameter was optimized with respect to the clinical data. Parameter estimation was conducted using the genetic algorithm method and weighted-least squares as the objective function. Four parameters were simultaneously estimated in the final step of model refinement using clinical data of single-dose PK study of tegoprazan 50 mg (Table 1). The values of Q and VSAC were estimated to reflect the biphasic distribution of tegoprazan, and the value of Kp scalar was estimated because it affected the overall PK profile, especially distribution and clearance. […]

CYP2C19 = molecular target: T1, CYP2C19 (Homo sapiens, UniProt P33261); experiment: Intrinsic clearance in human liver microsomes with CYP inhibitors; format: in vitro ADME
T1 construct: from tissue; host or cells: human liver microsomes
T1 sequence (P33261 whole entry): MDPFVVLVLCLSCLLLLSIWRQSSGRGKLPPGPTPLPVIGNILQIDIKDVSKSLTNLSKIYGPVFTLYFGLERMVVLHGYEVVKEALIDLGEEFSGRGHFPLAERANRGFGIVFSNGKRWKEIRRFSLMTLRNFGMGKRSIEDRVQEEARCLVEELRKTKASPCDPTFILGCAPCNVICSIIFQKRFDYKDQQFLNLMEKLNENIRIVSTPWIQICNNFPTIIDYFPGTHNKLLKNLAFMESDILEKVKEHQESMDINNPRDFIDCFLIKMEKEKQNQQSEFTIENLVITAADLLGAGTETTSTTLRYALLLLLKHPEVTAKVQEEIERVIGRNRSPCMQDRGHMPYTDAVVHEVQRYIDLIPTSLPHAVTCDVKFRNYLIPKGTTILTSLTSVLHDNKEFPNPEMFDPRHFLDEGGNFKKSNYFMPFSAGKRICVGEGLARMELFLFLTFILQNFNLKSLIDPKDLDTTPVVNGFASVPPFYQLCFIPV
Method: as §1

CYP2C9 = molecular target: T2, CYP2C9 (Homo sapiens, UniProt P11712); experiment: as above; format: in vitro ADME
T2 construct: from tissue; host or cells: human liver microsomes
T2 sequence (P11712 whole entry): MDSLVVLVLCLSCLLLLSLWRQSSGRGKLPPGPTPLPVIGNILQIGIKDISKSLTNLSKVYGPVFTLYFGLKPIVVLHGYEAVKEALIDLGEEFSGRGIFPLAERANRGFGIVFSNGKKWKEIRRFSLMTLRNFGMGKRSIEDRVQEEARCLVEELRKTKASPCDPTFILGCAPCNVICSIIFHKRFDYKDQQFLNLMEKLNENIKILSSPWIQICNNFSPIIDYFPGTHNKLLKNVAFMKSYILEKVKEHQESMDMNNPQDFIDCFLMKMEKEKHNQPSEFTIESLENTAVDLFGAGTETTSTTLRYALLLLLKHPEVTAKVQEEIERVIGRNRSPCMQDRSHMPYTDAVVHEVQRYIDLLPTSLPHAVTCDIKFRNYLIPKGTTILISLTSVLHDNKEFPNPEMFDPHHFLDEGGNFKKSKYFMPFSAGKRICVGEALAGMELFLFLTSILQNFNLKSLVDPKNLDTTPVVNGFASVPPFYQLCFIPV
Method: as §1

CYP2D6 = molecular target: T3, CYP2D6 (Homo sapiens, UniProt P10635); experiment: as above; format: in vitro ADME
T3 construct: from tissue; host or cells: human liver microsomes
T3 sequence (P10635 whole entry): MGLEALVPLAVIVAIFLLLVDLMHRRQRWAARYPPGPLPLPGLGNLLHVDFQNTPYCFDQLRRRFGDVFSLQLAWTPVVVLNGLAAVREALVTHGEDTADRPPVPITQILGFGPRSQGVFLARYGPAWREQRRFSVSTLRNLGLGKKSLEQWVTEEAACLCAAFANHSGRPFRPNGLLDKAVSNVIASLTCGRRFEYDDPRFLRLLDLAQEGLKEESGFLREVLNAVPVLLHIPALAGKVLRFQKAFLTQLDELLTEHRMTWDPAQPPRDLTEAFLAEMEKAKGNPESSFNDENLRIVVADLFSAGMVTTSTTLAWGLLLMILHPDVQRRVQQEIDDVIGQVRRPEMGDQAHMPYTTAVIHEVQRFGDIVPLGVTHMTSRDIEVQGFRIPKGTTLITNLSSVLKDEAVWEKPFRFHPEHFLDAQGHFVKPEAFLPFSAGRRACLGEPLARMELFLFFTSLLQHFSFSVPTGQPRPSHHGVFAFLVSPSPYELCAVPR
Method: as §1

[1] = PBPK model (SimCYP) prediction of tegoprazan PK; set-up: species or system human; details: estimated from clinical data, single dose 50 mg
Text: A PBPK model of tegoprazan was built and verified by both the bottom-up approach using in vitro data for maintaining a mechanistic PBPK structure and the top-down approach using clinical PK results for maintaining a descriptive structure (Figure 1). The initial PBPK model of tegoprazan was constructed using physicochemical properties (e.g., molecular weight, log P, pKa), in vitro data (e.g., permeability, intrinsic clearance), and in vivo data (e.g., renal clearance) provided by HK inno.N Corp. (Seoul, Korea). The commercially available software SimCYP simulator v19 (SimCYP Limited, Certara, Sheffield, UK) was used to build the PBPK model and to generate the PK simulations. The PBPK-model-predicted PK profiles and parameters of tegoprazan were compared with the observed PK profiles and parameters from previously conducted clinical studies (Supplementary Table S1). The specific model configuration related to absorption, distribution, and elimination is described below.
The advanced dissolution, absorption, and metabolism model was used. The unbound fraction of the drug in enterocytes (fuGut) and the human jejunum effective permeability (Peff,man) were predicted because these values were not routinely measured (Table 1). […]
The elimination of the PBPK model consisted of enzyme kinetic and renal clearance (Table 1). Intrinsic clearances (CLint) of tegoprazan by various CYPs were determined by an in vitro study that measured the fraction of CLint inhibited by adding the inhibitors of CYP1A2, CYP2C9, CYP2C19, CYP2D6, and CYP3A to human liver microsomes (in-house data). […]
The PBPK model of tegoprazan as a single agent was verified using data from clinical studies of single- and multiple-dose administration of different dosages of tegoprazan. To verify the PK predictability of the PBPK model, the model-predicted PK profiles and parameters were compared with the observed PK profiles and parameters measured in clinical studies. […]

[2] = Clinical DDI studies of tegoprazan with clarithromycin or clarithromycin/amoxicillin (observed); format: in vivo, human
Method: The established PBPK model was verified by applying the predicted values to the clinical PK data from various phase 1 studies conducted with healthy male adults (Supplementary Table S2). Brief information about the clinical studies follows: study 1 (single-dose PK study), a single dose of tegoprazan 25 mg and 50 mg was orally administered; study 2 (food effect study), a single dose of tegoprazan 50 mg was orally administered in both fasted and fed states; study 3 (bioequivalence study of two formulations), a single dose of two different formulations with tegoprazan 100 mg was orally administered; study 4 (multiple-dose PK study), multiple doses of tegoprazan 50 mg and 100 mg were orally administered once daily for 7 days; study 5 (DDI study with clarithromycin), multiple doses of tegoprazan 200 mg were orally administered once daily with or without multiple doses of clarithromycin 500 mg twice daily for 5 days; and study 6 (DDI study with clarithromycin and amoxicillin), multiple doses of tegoprazan 100 mg were orally administered twice daily with or without multiple doses of clarithromycin/amoxicillin 500/1000 mg twice daily for 5 days or 7 days.
After refining and verifying the PBPK model of tegoprazan as a single agent, the DDI between tegoprazan and clarithromycin was finally verified using data from DDI clinical studies. To verify the predictability of the DDI estimated by the PBPK model of tegoprazan, the model-predicted PK profiles, parameters, and fold-increase of parameters were compared with the observed PK data measured in clinical studies (i.e., studies 5 and 6). In the case of study 6, the observed data were generated under the condition of triple administration of tegoprazan, clarithromycin, and amoxicillin. […] When simulating the DDI between tegoprazan and clarithromycin, the PBPK model of clarithromycin available in the SimCYP compound file was used.

[3] = tegoprazan 100 mg BID with vs without clarithromycin 500 mg BID + amoxicillin 1000 mg BID
[4] = tegoprazan 200 mg QD with vs without clarithromycin 500 mg BID

- CYP3A4 CLint (CYP3A4): 30.34 μL/min/mg of protein
- CYP2C19 CLint (CYP2C19): 3.6 μL/min/mg of protein
- CYP2C9 CLint (CYP2C9): 2.6 μL/min/mg of protein
- CYP2D6 CLint (CYP2D6): 2 μL/min/mg of protein
- Q (blood flow between central compartment and SAC) [1]: 24.4 L/h
- VSAC (volume of the single adjusted compartment) [1]: 0.66 L/kg
- Kp ([1]; male, human, oral, read-out: Kp scalar): 0.33
- Fold Increase Obs. AUCR [2, 3]: 2.69
- Fold Increase Obs. CmaxR [2, 3]: 2.24
- Fold Increase Obs. AUCR [2, 4]: 2.57
- Fold Increase Obs. CmaxR [2, 4]: 1.66
SMILES: Cc1nc2cc(C(=O)N(C)C)cc(O[C@H]3CCOc4cc(F)cc(F)c43)c2[nH]1 [tegoprazan]
